Assay results published in patent US10472386B2, “Bile acid derivatives as FXR agonists and methods of use thereof” (priority 2017, dated 2019).

Target: T1, human FXR (NR1H4) (Homo sapiens, UniProt Q96RI1)
T1 sequence (Q96RI1 1-486): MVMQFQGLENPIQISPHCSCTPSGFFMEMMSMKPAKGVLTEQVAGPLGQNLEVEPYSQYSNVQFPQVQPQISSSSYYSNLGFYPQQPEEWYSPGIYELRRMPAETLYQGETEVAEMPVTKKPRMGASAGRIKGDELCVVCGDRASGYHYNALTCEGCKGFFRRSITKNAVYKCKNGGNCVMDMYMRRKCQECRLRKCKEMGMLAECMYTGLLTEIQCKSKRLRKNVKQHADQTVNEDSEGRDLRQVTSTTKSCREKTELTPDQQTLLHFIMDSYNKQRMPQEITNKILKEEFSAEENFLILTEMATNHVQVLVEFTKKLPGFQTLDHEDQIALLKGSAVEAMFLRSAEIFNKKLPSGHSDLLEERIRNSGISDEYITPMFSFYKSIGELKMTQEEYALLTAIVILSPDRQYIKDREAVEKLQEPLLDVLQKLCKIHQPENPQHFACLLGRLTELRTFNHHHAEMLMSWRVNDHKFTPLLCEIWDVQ
Assay: Human FXR (NR1H4) Assay (Gal4 promoter driven luciferase reporter, Indigo Bioscience kit IB00601)
Assay type: cell-based
Conditions: FXR agonistic potency; CHO reporter cells expressing human NR1H4; 22 hours incubation; luciferase readout
Source text: Determination of a ligand mediated Gal4 promoter driven transactivation to quantify ligand binding mediated activation of FXR. FXR Reporter Assay kit purchased from Indigo Bioscience (Catalogue number: IB00601) to determine the potency and efficacy of compound developed by Enanta that can induce FXR activation. The principle application of this reporter assay system is to quantify functional activity of human FXR. The assay utilizes non-human mammalian cells, CHO (Chinese hamster ovary) cells engineered to express human NR1H4 protein (referred to as FXR). Reporter cells also incorporate the cDNA encoding beetle luciferase which catalyzes the substrates and yields photon emission. Luminescence intensity of the reaction is quantified using a plate-reading luminometer, Envision. Reporter Cells include the luciferase reporter gene functionally linked to an FXR responsive promoter. Thus, quantifying changes in luciferase expression in the treated reporter cells provides a sensitive surrogate measure of the changes in FXR activity. […] The assay is according to the manufacturer's instructions. In brief, the assay was performed in white, 96 well plates using final volume of 100 uL containing cells with different doses of compounds. Retrieve Reporter Cells from −80° C. storage. Perform a rapid thaw of the frozen cells by transferring a 10 ml volume of 37° C. cell recovery medium into the tube of frozen cells. Recap the tube of Reporter Cells and immediately place it in a 37° C. water bath for 5-10 minutes. Retrieve the tube of Reporter Cell Suspension from the water bath. Sanitize the outside surface of the tube with a 70% alcohol swab, and then transfer it into the cell culture hood. Dispense 90 μl of cell suspension into each well of the 96-well Assay Plate. Transfer the plate into 37° C. incubator, allowing the cells adherent to the bottom of the well. Dilute compounds in Dilution Plate (DP), and administrate to cells at Assay Plate (AP). DMSO content of the samples was kept at 0.2%. Cells were incubated for additional 22 hours before luciferase activities were measured. Thirty minutes before intending to quantify FXR activity, remove Detection Substrate and Detection Buffer from the refrigerator and place them in a low-light area so that they may equilibrate to room temperature. Remove the plate's lid and discard all media contents by ejecting it into an appropriate waste container. Gently tap the inverted plate onto a clean absorbent paper towel to remove residual droplets. Cells will remain tightly adhered to well bottoms. Add 100 μl of luciferase detection reagent to each well of the assay plate. Allow the assay plate to rest at room temperature for at least 5 minutes following the addition of LDR. Set the instrument (Envision) to perform a single 5 second “plate shake” prior to reading the first assay well. Read time may be 0.5 second (500 mSec) per well.

| SMILES | EC50 [nM] |
| --- | --- |
| CC[C@H]1[C@@H](O)[C@@H]2[C@H](CC[C@]3(C)[C@@H]([C@H](C)COC(=O)NS(=O)(=O)c4ccc5c(c4)CC(C)(C)O5)CC[C@@H]23)[C@@]2(C)CC[C@@H](O)C[C@@H]12 [Example 6] | < 1 |
| CC[C@H]1[C@@H](O)[C@@H]2[C@H](CC[C@]3(C)[C@@H]([C@H](C)COC(=O)NS(=O)(=O)c4ccc(OCC(C)(C)C)cc4)CC[C@@H]23)[C@@]2(C)CC[C@@H](O)C[C@@H]12 [Example 20] | 1 to 10 |
| CC[C@H]1[C@@H](O)[C@@H]2[C@H](CC[C@]3(C)[C@@H]([C@H](C)COC(=O)NS(=O)(=O)c4ccc(OC)cc4)CC[C@@H]23)[C@@]2(C)CC[C@@H](O)C[C@@H]12 [Example 27] | 1 to 10 |
| CC[C@H]1[C@@H](O)[C@@H]2[C@H](CC[C@]3(C)[C@@H]([C@H](C)COC(=O)NS(=O)(=O)c4ccc(OC5(C)CCCCC5)cc4)CC[C@@H]23)[C@@]2(C)CC[C@@H](O)C[C@@H]12 [Example 12] | < 1 |
| CC[C@H]1[C@@H](O)[C@@H]2[C@H](CC[C@]3(C)[C@@H]([C@H](C)COC(=O)NS(=O)(=O)c4cc(C)c(OC(C)C)c(C)c4)CC[C@@H]23)[C@@]2(C)CC[C@@H](O)C[C@@H]12 [Example 18] | < 1 |
| CC[C@H]1[C@@H](O)[C@@H]2[C@H](CC[C@]3(C)[C@@H]([C@H](C)COC(=O)NS(=O)(=O)c4ccc(O)cc4)CC[C@@H]23)[C@@]2(C)CC[C@@H](O)C[C@@H]12 [Example 26] | > 100 |
| CC[C@H]1[C@@H](O)[C@@H]2[C@H](CC[C@]3(C)[C@@H]([C@H](C)COC(=O)NS(=O)(=O)c4ccc5c(c4)CCC(C)(C)O5)CC[C@@H]23)[C@@]2(C)CC[C@H](O)C[C@@H]12 [Example 33] | < 1 |
| CC[C@H]1[C@@H](O)[C@@H]2[C@H](CC[C@]3(C)[C@@H]([C@H](C)COC(=O)NS(=O)(=O)c4ccc(OC(C)(C)C)cc4)CC[C@@H]23)[C@@]2(C)CC[C@@H](O)C[C@@H]12 [Example 24] | < 1 |
| CC[C@H]1[C@@H](O)[C@@H]2[C@H](CC[C@]3(C)[C@@H]([C@H](C)COC(=O)NS(=O)(=O)c4ccc(OC5CCCC5)cc4)CC[C@@H]23)[C@@]2(C)CC[C@@H](O)C[C@@H]12 [Example 9] | < 1 |
| CC[C@H]1[C@@H](O)[C@@H]2[C@H](CC[C@]3(C)[C@@H]([C@H](C)COC(=O)NS(=O)(=O)c4ccc(OC(C)(C)C)cn4)CC[C@@H]23)[C@@]2(C)CC[C@@H](O)C[C@@H]12 [Example 22] | < 1 |
| CC[C@H]1[C@@H](O)[C@@H]2[C@H](CC[C@]3(C)[C@@H]([C@H](C)COC(=O)NS(=O)(=O)c4ccc5c(c4)CCC(C)(C)O5)CC[C@@H]23)[C@@]2(C)CCC(=O)C[C@@H]12 [Example 34] | < 1 |
| CC[C@H]1[C@@H](O)[C@@H]2[C@H](CC[C@]3(C)[C@@H]([C@H](C)COC(=O)NS(=O)(=O)c4ccc(OC5CCC5)cc4)CC[C@@H]23)[C@@]2(C)CC[C@@H](O)C[C@@H]12 [Example 8] | < 1 |
| CC[C@H]1[C@@H](O)[C@@H]2[C@H](CC[C@]3(C)[C@@H]([C@H](C)COC(=O)NS(=O)(=O)c4ccc5c(c4)CCC(C)(C)O5)CC[C@@H]23)[C@@]2(C)CC[C@@H](O)C[C@@H]12 [Example 5] | < 1 |
| CC[C@H]1[C@@H](O)[C@@H]2[C@H](CC[C@]3(C)[C@@H]([C@H](C)COC(=O)NS(=O)(=O)c4ccc(OC(F)(F)F)cc4)CC[C@@H]23)[C@@]2(C)CC[C@@H](O)C[C@@H]12 [Example 23] | > 100 |
| CC[C@H]1[C@@H](O)[C@@H]2[C@H](C[C@H](O)[C@]3(C)[C@@H]([C@H](C)COC(=O)NS(=O)(=O)c4ccc5c(c4)CCC(C)(C)O5)CC[C@@H]23)[C@@]2(C)CC[C@@H](O)C[C@@H]12 [Example 32] | > 100 |
| CC(C)Oc1ccc(S(=O)(=O)NC(=O)OC[C@@H](C)[C@H]2CC[C@H]3[C@@H]4[C@H](O)C[C@@H]5C[C@H](O)CC[C@]5(C)[C@H]4CC[C@]23C)cc1 [Example 3] | > 100 |
| CC[C@H]1[C@@H](O)[C@@H]2[C@H](CC[C@]3(C)[C@@H]([C@H](C)COC(=O)NS(=O)(=O)c4ccc(OC(C)C)cc4)CC[C@@H]23)[C@@]2(C)CC[C@@H](O)C[C@@H]12 [Example 4] | < 1 |
| CC[C@H]1[C@@H](O)[C@@H]2[C@H](CC[C@]3(C)[C@@H]([C@H](C)COC(=O)NS(=O)(=O)c4ccc(OC(F)(F)C(F)(F)F)cc4)CC[C@@H]23)[C@@]2(C)CC[C@@H](O)C[C@@H]12 [Example 30] | 1 to 10 |
| CC[C@H]1[C@@H](O)[C@@H]2[C@H](CC[C@]3(C)[C@@H]([C@H](C)COC(=O)NS(=O)(=O)c4ccc(O[C@@H](C)CC)cc4)CC[C@@H]23)[C@@]2(C)CC[C@@H](O)C[C@@H]12 [Example 16] | < 1 |
| CC[C@H]1[C@@H](O)[C@@H]2[C@H](CC[C@]3(C)[C@@H]([C@H](C)COC(=O)NS(=O)(=O)c4ccc(O[C@H](C)CC)cc4)CC[C@@H]23)[C@@]2(C)CC[C@@H](O)C[C@@H]12 [Example 17] | < 1 |
| CCC(CC)Oc1ccc(S(=O)(=O)NC(=O)OC[C@@H](C)[C@H]2CC[C@H]3[C@@H]4[C@H](O)[C@H](CC)[C@@H]5C[C@H](O)CC[C@]5(C)[C@H]4CC[C@]23C)cc1 [Example 19] | 10 to 100 |
| CC[C@H]1[C@@H](O)[C@@H]2[C@H](CC[C@]3(C)[C@@H]([C@H](C)COC(=O)NS(=O)(=O)c4ccc(OC5(C)CCCC5)cc4)CC[C@@H]23)[C@@]2(C)CC[C@@H](O)C[C@@H]12 [Example 10] | < 1 |
| CCCCOc1ccc(S(=O)(=O)NC(=O)OC[C@@H](C)[C@H]2CC[C@H]3[C@@H]4[C@H](O)[C@H](CC)[C@@H]5C[C@H](O)CC[C@]5(C)[C@H]4CC[C@]23C)cc1 [Example 21] | 1 to 10 |
| CC[C@H]1[C@@H](O)[C@@H]2[C@H](CC[C@]3(C)[C@@H]([C@H](C)COC(=O)NS(=O)(=O)c4ccc(OC5CC5)cc4)CC[C@@H]23)[C@@]2(C)CC[C@@H](O)C[C@@H]12 [Example 7] | < 1 |
| CC[C@H]1[C@@H](O)[C@@H]2[C@H](CC[C@]3(C)[C@@H]([C@H](C)COC(=O)NS(=O)(=O)c4ccc(Oc5ccccc5)cc4)CC[C@@H]23)[C@@]2(C)CC[C@@H](O)C[C@@H]12 [Example 25] | > 100 |
| CCCOc1ccc(S(=O)(=O)NC(=O)OC[C@@H](C)[C@H]2CC[C@H]3[C@@H]4[C@H](O)[C@H](CC)[C@@H]5C[C@H](O)CC[C@]5(C)[C@H]4CC[C@]23C)cc1 [Example 15] | < 1 |
| CC[C@H]1[C@@H](O)[C@@H]2[C@H](CC[C@]3(C)[C@@H]([C@H](C)COC(=O)NS(=O)(=O)c4cnc(OC(C)C)nc4)CC[C@@H]23)[C@@]2(C)CC[C@@H](O)C[C@@H]12 [Example 28] | 10 to 100 |
| CCOc1ccc(S(=O)(=O)NC(=O)OC[C@@H](C)[C@H]2CC[C@H]3[C@@H]4[C@H](O)[C@H](CC)[C@@H]5C[C@H](O)CC[C@]5(C)[C@H]4CC[C@]23C)cc1 [Example 14] | < 1 |
| CC[C@H]1[C@@H](O)[C@@H]2[C@H](CC[C@]3(C)[C@@H]([C@H](C)COC(=O)NS(=O)(=O)c4ccc(OC5CCCCC5)cc4)CC[C@@H]23)[C@@]2(C)CC[C@@H](O)C[C@@H]12 [Example 11] | 1 to 10 |
